≈ marks a conversion by molar mass, not a printed value. Like-named read-outs stand apart in the source and are kept apart here.
What was measured:
[1] = test system: Mycobacterium smagmatis 607 ™; assay: MIC, broth dilution method, dark condition; assay type: cell-based, Mycobacterium smegmatis; settings: for MIC: read-out: MIC (μg/mL) against M. smegmatis 607 ™ (wild-type)
[2] = test system: biofilms of S. aureus 6508™; assay: Biofilm eradication assay; assay type: cell-based, Staphylococcus aureus; settings: linezolid at 600 μg/mL
Description: 62:394-399 (2013)], and was used as a control.
Linezolid was applied as a positive control at very high concentration of 600 μg/mL (>100×MIC for the planktonic cells) in biofilm assays reported by Kurosu et al., Molecules 27:322 (2022).

[3] = test system: M. smegmatis 607 ™ (RB mutant); assay type: cell-based, Mycobacterium smegmatis; settings: dark condition; triplicated

Compound: CO[C@H]1/C=C/O[C@@]2(C)Oc3c(C)c(O)c4c(O)c(c(/C=N/N5CCN(C)CC5)c(O)c4c3C2=O)NC(=O)/C(C)=C\C=C\[C@H](C)[C@H](O)[C@@H](C)[C@@H](O)[C@@H](C)[C@H](OC(C)=O)[C@@H]1C [Rifampicin]
- MIC [1]: 1.56 µg/mL (≈ 1.9 µM)

Compound: CC(=O)NC[C@H]1CN(c2ccc(N3CCOCC3)c(F)c2)C(=O)O1 [linezolid, reference compound]
- biofilm eradication efficacy of positive control compared with RB [2]: the same level of efficacy

Compound: NCC[C@H](O)C(=O)N[C@@H]1C[C@H](N)[C@@H](O[C@H]2O[C@H](CN)[C@@H](O)[C@H](O)[C@H]2O)[C@H](O)[C@H]1O[C@H]1O[C@H](CO)[C@@H](O)[C@H](N)[C@H]1O [Amikacin]
- MIC ([1]; dark condition, triplicated): 0.78 µg/mL (≈ 1.33 µM)

Compound: CCc1cc(C(N)=S)ccn1 [Ethionamide (ETH), Ethionamide]
- MIC [1]: 12.5 µg/mL (≈ 75.2 µM)

Compound: Capreomycin
- MIC (μg/mL) against M. smegmatis 607 ™ (wild-type) ([1]; dark condition, triplicated): 3.13 µg/mL
- MIC (μg/mL) against M. smegmatis 607 ™ (RB mutant) [3]: 3.13 µg/mL

Compound: NNC(=O)c1ccncc1 [Isoniazid (INH), Isoniazid]
- MIC ([1]; dark condition, triplicated): 1.56 µg/mL (≈ 11.4 µM)

Compound: NC[C@H]1O[C@@H](O[C@H]([C@H]2O[C@@H](n3ccc(=O)[nH]c3=O)[C@H](O)[C@@H]2O)[C@H](NCCCC(=O)NCc2ccc(N3CCC(Oc4ccc(OC(F)(F)F)cc4)CC3)cc2)C(N)=O)[C@H](O)[C@@H]1O [APPB, aminouridyl phenoxypiperidinylbenzyl butanamide]
- MIC (μg/mL) against M. smegmatis 607 ™ (wild-type) ([1]; dark condition, triplicated): 0.20 µg/mL (≈ 0.227 µM)
- MIC (μg/mL) against M. smegmatis 607 ™ (RB mutant) [3]: 0.20 µg/mL (≈ 0.227 µM)
